Measured values reported in ChEMBL document CHEMBL1201862, “PubChem BioAssay data set” (2004).
Calls of active or inactive are those of the source.

Tests used:
[1] = reduced cellular PGC1a acetyl-lysine signal – cell-based, cherry-picked samples, dose response (AID 720514); type: functional;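 further: potency may reflect raised or lowered acetylation signal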
HEK293 [2] = assay: viability loss in HEK293T cells – cell-based, ATP luminescence, cherry-pick samples, cytotoxicity control, dose response (AID 687005); type: functional; conditions: Homo sapiens;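 further: cells exposed to compound for 48 hours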
[3] = HEK293 Cytotoxicity Assay Measured in Cell-Based System Using Plate Reader - 7071-01_Inhibitor_Dose_CherryPick_Activity_Set2.; type: functional
fMet-Leu-Phe receptor = fMet-Leu-Phe receptor (Homo sapiens, UniProt P21462); assay: formyl peptide receptor binders – dose response (AID 519); type: functional
HEK293 [4] = assay: EBV LMP1 TES2 canonical NF-kB signalling blockers – cell-based, HEK293, luciferase, cherry-pick, dose response (AID 588343); type: functional; conditions: Homo sapiens
Paired box protein Pax-8 = Paired box protein Pax-8 (Homo sapiens, UniProt Q06710); assay: PAX8 transcriptional activity inhibition in RMG-I – RMG-I cells, luciferase, cherry-pick, dose response (AID 687027); type: functional, cell-based;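 further: luciferase reporter driven by Pax8 target thyroperoxidase promoter measured by SteadyGlo luminescence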
[5] = general mammalian cell viability loss – activator set, cherry-pick, cytotoxicity control for miR-122 modulator project, dose response (AID 720690); type: functional, cell-based;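 further: HEK293T human cells scored for general mammalian cytotoxicity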
[6] = viability loss in HEK293 cells – cell-based, plate reader, cherry-picked samples, cytotoxicity control, dose response (AID 743446); type: functional
[7] = DRD fibroblast viability loss – cell-based, non-viral oncogenic, luminescence, dose response (AID 1934); type: functional; conditions: Homo sapiens
[8] = Fluorescence-based cell-based high throughput dose response assay for inhibitors of the interaction of nucleotide-binding oligomerization domain containing 2 (NOD2) and the receptor-interacting serine-threonine kinase 2 (RIPK2).; type: functional; conditions: Homo sapiens
[9] = activation of miR-122 Renilla sensor silencing – cell-based, Huh7 psiCHECK-miR122, Renilla luciferase, cherry-picked, dose response (AID 651956); type: functional;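 further: huh7 hepatoma cells stably carrying a psiCHECK-2 miR-122 sensor plasmid; renilla luciferase signal reporting endogenous miR-122 activity after 48 h compound exposure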
BJ [10] = assay: cells; type: functional, cell-based; conditions: Homo sapiens
BJ [11] = assay: BJ-TERT-LT-ST fibroblast viability loss – cell-based, RAS-independent, luminescence, dose response (AID 1935); type: functional; conditions: Homo sapiens;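 further: BJ fibroblasts immortalized with TERT plus LT and ST oncogenes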
[12] = toxicity toward HepG2 liver cells – cell-based, plate reader, cherry-pick, antagonist series, cytotoxicity control, dose response (AID 743416); type: functional
[13] = blockers of bursicon-stimulated LGR2 cAMP reporter – cell-based, HEK293, CRE-luciferase reporter, cherry pick, set 2, dose response (AID 743343); type: functional;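 further: transfected cells were stimulated with diluted bursicon conditioned medium after compound addition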
[14] = A549 cell cytotoxicity, dose response, cytotoxicity control, plate reader, cherry-pick, antagonist series (AID 743412); type: functional, cell-based
[15] = general cell-killing toxicity readout – plate reader, dry powder samples, cytotoxicity control for PAX8 inhibitor project, dose response (AID 743021); type: functional, cell-based
[16] = reduction of Shn3 3'UTR-driven luciferase in osteoblasts – cell-based, Clone20 osteoblasts, firefly luciferase, cherry-picked, dose response (AID 624132); type: functional;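 further: firefly luciferase luminescence from reporter carrying the Shn3 3'UTR in osteoblasts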
[17] = loss of viability in HepG2 cells – cell-based, CellTiter-Glo, cherry-picked, cytotoxicity control for Shn3 inhibitor project, dose response (AID 624134); type: functional
[18] = non-specific 3'UTR reporter inhibition in Clone20-Shn3RL – cell-based, Renilla luciferase, cherry-picked, counter-screen for Shn3 inhibitor project, dose response (AID 624133); type: functional
BJ [19] = assay: BJ-TERT fibroblast viability loss – cell-based, RAS-independent, luminescence, dose response (AID 1933); type: functional; conditions: Homo sapiens
[20] = Luminescence Cell-Based Dose Retest to Confirm Inhibitors of Cancer Stem Cells. [Related pubchem assays (depositor defined):AID2717, AID2721]; type: functional; conditions: Homo sapiens
[21] = blockade of melanocortin 4 receptor signaling – cell-based, plate reader, cherry pick, counter-screen for LGR2 antagonist project, dose response (AID 743444); type: functional;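 further: transfected HEK 293 cells stimulated with alpha-MSH peptide; potency of inhibitors of the alpha-MSH evoked signal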
BJ [22] = assay: growth inhibition of engineered Ras-driven BJ cells – cell-based, alamar blue fluorescence, cherrypicked samples, dose response (AID 2631); type: functional; conditions: Homo sapiens;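 further: confirmatory dose-response assay in RAS-dependent BJ fibroblasts engineered with TERT, LT and ST, with cytotoxicity read by fluorescence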
[23] = IC50 of Artemis nuclease activity blockers – biochemical, fluorescence intensity, dose response (AID 720701); type: functional;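 further: Artemis endonuclease enzyme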
[24] = microbe, parasite or virus in culture; type: functional; conditions: Mycobacterium tuberculosis

fMet-Leu-Phe receptor, sequence (P21462 whole entry): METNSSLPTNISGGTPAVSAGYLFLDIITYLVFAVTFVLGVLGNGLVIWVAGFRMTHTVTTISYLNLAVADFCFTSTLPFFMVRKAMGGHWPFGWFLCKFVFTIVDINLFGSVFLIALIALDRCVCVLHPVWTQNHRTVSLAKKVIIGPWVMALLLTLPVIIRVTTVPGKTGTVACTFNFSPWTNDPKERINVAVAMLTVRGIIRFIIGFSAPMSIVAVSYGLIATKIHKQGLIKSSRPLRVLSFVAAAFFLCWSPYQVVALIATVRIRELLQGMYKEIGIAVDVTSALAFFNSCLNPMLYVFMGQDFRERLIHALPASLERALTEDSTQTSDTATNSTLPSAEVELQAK
Paired box protein Pax-8, sequence (Q06710 whole entry): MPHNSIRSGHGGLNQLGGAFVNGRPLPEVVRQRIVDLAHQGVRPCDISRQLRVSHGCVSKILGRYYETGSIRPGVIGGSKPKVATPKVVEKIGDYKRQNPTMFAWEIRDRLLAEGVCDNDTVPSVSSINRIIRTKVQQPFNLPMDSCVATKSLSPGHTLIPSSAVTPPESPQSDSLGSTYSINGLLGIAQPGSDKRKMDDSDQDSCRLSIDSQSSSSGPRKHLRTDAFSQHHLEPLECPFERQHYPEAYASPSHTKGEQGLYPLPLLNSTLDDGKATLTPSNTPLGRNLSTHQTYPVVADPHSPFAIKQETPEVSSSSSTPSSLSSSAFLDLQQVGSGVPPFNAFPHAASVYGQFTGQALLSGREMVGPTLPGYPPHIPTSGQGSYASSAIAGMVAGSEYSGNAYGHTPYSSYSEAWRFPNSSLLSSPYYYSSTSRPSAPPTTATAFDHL

Question: With `O=C(C(Br)=Cc1ccccc1)c1ccccc1` as the compound, how does the AC50 [1] read?
Answer: 10.9 µM (active)

Question: Which AC50 (HEK293 [2]) does the source give for `Cc1ccc(S(=O)(=O)N[C@H]2C=C[C@@H](CC(=O)N3CCC(Cc4ccccc4)CC3)O[C@H]2CO)cc1` here?
Answer: 14.2 µM (active)

Question: What about the AC50 [3] of the same compound?
Answer: 14.2 µM (active)

Question: Which Ki (fMet-Leu-Phe receptor) does the source give for `CC(C)OC(=O)c1nnn(-c2nonc2N)c1CN1CCc2ccccc2C1` here?
Answer: 50 µM (inactive)

Question: Which results are given for `Cc1cccc(-n2ncc(Cl)c(Cl)c2=O)c1`?
Answer: AC50 (HEK293 [4]): 3.08 µM (active); AC50 (Paired box protein Pax-8): 5.11 µM (active); AC50 [5]: 2.27 µM (active); AC50 [6]: 7.36 µM (active); EC50 [7]: 5.17 µM (active); IC50 [8]: 5.33 µM (active); AC50 [9]: 8.05 µM (active); EC50 (BJ [10]): > 150 µM (inconclusive); EC50 (BJ [11]): 5.1 µM (inconclusive); AC50 [12]: 8.69 µM (active); AC50 [13]: 20.4 µM (active); AC50 [14]: 7.6 µM (active); AC50 [15]: 25.6 µM (active); AC50 [16]: 5.8 µM (active); AC50 [17]: 40.7 µM (active); AC50 [18]: 12.4 µM (active); EC50 (BJ [19]): 1.02 µM (active); AC50 [20]: 2.66 µM (active); AC50 [21]: 27.5 µM (active); EC50 (BJ [22]): 0.556 µM (active)

Question: Which Ki (fMet-Leu-Phe receptor) does the source give for `O=C(C1=C(O)C(=O)N(Cc2ccccc2)C1c1ccco1)c1ccco1` (configuration not stated) here?
Answer: 12.4 µM (active)

Question: With `COc1ccc2nc(NC(=O)C3CCCN(S(=O)(=O)c4cccs4)C3)sc2c1` (configuration not stated) as the compound, how does the IC50 [23] read?
Answer: > 20 µM (inactive)

Question: What about the CC50 [24] of the same compound?
Answer: 35.4 µM (active)
